pIC50: −log10 of the molar value.
Columns and labels:
Assay type in all cases: cell-based, Human
[1] = tested on: H1703 (PDGFRa amp); experiment: In vitro growth inhibition of H1703 tumor cells (MTT/CCK8); details: Homo sapiens, NCI-H1703; in vitro growth inhibition (or induction of apoptosis), cells cultured 3 to 5 days, MTT (CCK8); read-out: IC50 H1703 (PDGFRa amp)
Description: (§1) Tumor cell lines are an effective model for studying in vitro tumor growth inhibition. In the present invention, a representative tumor cell line was selected to determine the cell growth inhibition activity of the present compound. All cell lines used were from ATCC, DSMZ, and cell banks of the Chinese Academy of Sciences. Cell culture conditions and methods were in accordance with the requirements of each cell line. Cells were subcultured in vitro for no more than 3 generations each time, and as required, single-clone purification and identification of cell lines could be carried out.
(§2) The cell culture media used were RPMI1640 (Gibco), DMEM (Gibco), MEM (Gibco), L15 (Gibco), IMDM (Gibco), McCOY'S5A, and William's (Gibco). 5-20% fetal bovine serum (Gibco), 1% double antibiotic, 2 mM glutamine, or 1 mM sodium pyruvate were added. The names, species, major gene characteristics, culture media and cell sources of the cell lines used are shown in table 1, wherein “amp” refers to gene amplification. “+++” refers to gene overexpression. The main genetic characteristics of cells were obtained from the COSMIC Cell Lines Project and related research papers, respectively.
(§3) Adherent cells were digested with 0.25% trypsin-EDTA (Gibco). Suspension culture cells were collected by centrifugation (1700 rpm, 3 minutes). The supernatant was discarded and the cells were counted. According to each cell growth cycle, different concentrations of cells were prepared (5˜10×10^4 cells per ml), and inoculated to 96-well plates (Corning), with 100 μl per well, and incubated overnight at 37° C., 5% CO2. The next day, the test compound was added to the cultured cells (2 wells in parallel). The final concentration of the solvent was less than 1/1,000. The cells were further cultured for 3 to 5 days and assayed by MTT.
(§4) The compound was stored at a concentration of 10 mM at −20° C. and diluted to 2- or 10-fold series prior to use. BGJ398 and AC220 were synthesized according to the methods of WO2006420A1 and US2007232604A1, respectively.
(§5) The adherent cells were taken out from the cell culture medium, and immediately added to a freshly prepared complete medium containing 10% CCK8 (5% FBS), 100 ul per hole. The suspended cells were directly added to a CCK8 reagent until reaching a final concentration of 10% and cultured for 1 to 4 hours.
(§6) T=optical density of drug-treated cell wells−optical density of blank control wells; T0=optical density of cell wells before drug treatment−optical density of blank control wells; C=optical density of solvent control wells−optical density of blank control wells. […] The experiments were repeated 1 to 3 times and a statistical analysis of data was conducted.

[2] = tested on: Hep3B2 (FGFR3/4+++); experiment: In vitro growth inhibition of Hep3B2 tumor cells (MTT/CCK8); details: Homo sapiens, Hep3B; in vitro growth inhibition (or induction of apoptosis), cells cultured 3 to 5 days, MTT (CCK8); read-out: IC50 Hep3B2 (FGFR3/4+++)
Description: as §1, §2, §3, §4, §5, §6

[3] = tested on: H1581 (FGFR1 amp); experiment: In vitro growth inhibition of H1581 tumor cells (MTT/CCK8); details: Homo sapiens, NCI-H1581; in vitro growth inhibition (or induction of apoptosis), cells cultured 3 to 5 days, MTT (CCK8); read-out: IC50 H1581 (FGFR1 amp)
[4] = tested on: KATO III (FGFR2 amp); experiment: In vitro growth inhibition of KATO III tumor cells (MTT/CCK8); details: Homo sapiens, KATO III; in vitro growth inhibition (or induction of apoptosis), cells cultured 3 to 5 days, MTT (CCK8); read-out: IC50 KATO III (FGFR2 amp)
[5] = tested on: Kasumi-1 (KIT N822K); experiment: In vitro growth inhibition of Kasumi-1 tumor cells (MTT/CCK8); details: Homo sapiens, Kasumi 1; in vitro growth inhibition (or induction of apoptosis), cells cultured 3 to 5 days, MTT (CCK8); read-out: IC50 Kasumi-1 (KIT N822K)
Description: as §1, §2, §3, §4, §5, §6

[6] = tested on: Karpas 299 (NPM-ALK); experiment: In vitro growth inhibition of Karpas 299 tumor cells (MTT/CCK8); details: Homo sapiens, KARPAS-299; in vitro growth inhibition (or induction of apoptosis), cells cultured 3 to 5 days, MTT (CCK8); read-out: IC50 Karpas 299 (NPM-ALK)
Description: as §1, §2, §3, §4, §5, §6

[7] = tested on: MOLM-13 (FLT3-ITD); experiment: In vitro growth inhibition of MOLM-13 tumor cells (MTT/CCK8); details: Homo sapiens, MOLM-13; in vitro growth inhibition (or induction of apoptosis), cells cultured 3 to 5 days, MTT (CCK8); read-out: IC50 MOLM-13 (FLT3-ITD)
[8] = tested on: KCL-22 (BCR-ABL); experiment: In vitro growth inhibition of KCL-22 tumor cells (MTT/CCK8); details: Homo sapiens, KCL-22; in vitro growth inhibition (or induction of apoptosis), cells cultured 3 to 5 days, MTT (CCK8); read-out: IC50 KCL-22 (BCR-ABL)
Description: as §1, §2, §3, §4, §5, §6

pIC50 [1]	pIC50 [2]	pIC50 [3]	pIC50 [4]	pIC50 [5]	pIC50 [6]	pIC50 [7]	pIC50 [8]	Structure (SMILES)
7.59	7.40	7.78	8.84	7.47	6.38	8.20	7.66	CNC(=O)c1cc2c(Oc3ccc(NC(=O)Nc4cc(C(C)(C)C)n[nH]4)c(Cl)c3)ccnc2cc1OC [Compound 45, 4-{4-[3-(5-tert-butyl-2H-pyrazol-3-yl)-ureido]-3-chloro-phenoxy}-7-methoxyquinolin-6-carboxylic acid methylamide]
7.69	6.17	6.57	7.92	7.05	< 6.00	8.62	7.55	COc1cc2nccc(Oc3ccc(N(C)C(=O)Nc4cc(C(C)(C)C)on4)cc3)c2cc1C(N)=O [Compound 11, 4-{4-[3-(5-tert-butyl-isoxazol-3-yl)-1-methyl-ureido]-phenoxy}-7-methoxyquinolin-6-carboxamide]
7.14	7.08	7.40	8.39	7.24	6.73	9.23	7.34	C=CC(=O)Nc1cc2c(Oc3ccc(NC(=O)Nc4cc(C(C)(C)C)n[nH]4)cc3Cl)ccnc2cc1OC [Compound 105, N-(4-{4-[3-(5-tert-butyl-2H-pyrazol-3-yl)-ureido]-2-chloro-phenoxy}-7-methoxy-quinolin-6-yl)-acrylamide]
7.43	7.19	7.41	8.24	6.83	6.25	7.29	6.99	CC(C)Oc1cc2nccc(Oc3ccc(NC(=O)Nc4cc(C(C)(C)C)n[nH]4)c(Cl)c3)c2cc1C(N)=O [Compound 43, 4-{4-[3-(5-tert-butyl-2H-pyrazol-3-yl)-ureido]-3-chloro-phenoxy}-7-isopropoxy-quinolin-6-carboxamide]
< 6.00	< 6.00	< 6.00	< 6.00	< 6.00	< 6.00	< 6.00	≤ 6.00	CCN1CCN(c2ccc(Nc3cc(NC(=O)Nc4ccc(Oc5ccnc6cc(OC)c(C(N)=O)cc56)c(Cl)c4Cl)ncn3)cc2)CC1 [Compound 71]
7.92	7.80	8.37	9.51	8.06	6.95	8.51	8.33	COc1cc2nccc(Oc3ccc(NC(=O)Nc4cc(C(C)(C)C)n[nH]4)c(Cl)c3)c2cc1NC(C)=O [Compound 63, N-(4-{4-[3-(5-tert-butyl-2H-pyrazol-3-yl)-ureido]-3-chloro-phenoxy}-7-methoxyquinolin-6-yl)-acetamide]
7.93	7.66	8.55	9.39	8.52	7.16	8.89	8.59	CNC(=O)c1cc2c(Oc3ccc(NC(=O)Nc4cc(C(C)(C)C)nn4C)c(Cl)c3Cl)ccnc2cc1OC [Compound 57, 4-{4-[3-(5-tert-butyl-2-methyl-2H-pyrazol-3-yl)-ureido]-2,3-dichloro-phenoxy}-7-methoxyquinolin-6-carboxylic acid methylamide]

— patent US10800741B2 (ANCUREALL PHARMACEUTICAL (SHANGHAI) CO., LTD., priority 2017, dated 2020)
